Laboratory results taken from ChEMBL document CHEMBL1201862, “PubChem BioAssay data set” (2004).
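Following 48 hours of exposure in 96-well plates, responses at five concentrations were used to interpolate endpoints linearly. GI50 is the concentration that inhibits growth by half.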 Calls of active or inactive are those of the source. No stated cut-off is given here; in the data, active = GI50 up to about 1.1 µM and inactive = higher.

Experiments:
Assay in all cases: DTP human tumour cell line panel, 48 h
[1] = test system: K562
[2] = test system: EKVX
[3] = test system: UACC-62
[4] = test system: SK-OV-3
[5] = test system: HCT-15
[6] = test system: NCI-H23
[7] = test system: HOP-92
[8] = test system: RPMI-8226
[9] = test system: SNB-19
[10] = test system: TK-10
[11] = test system: A549
[12] = test system: OVCAR-8
[13] = test system: SF-539
[14] = test system: CAKI-1
[15] = test system: SF-295
[16] = test system: SR

Row | SMILES | GI50 [1] | GI50 [2] | GI50 [3] | GI50 [4] | GI50 [5] | GI50 [6] | GI50 [7] | GI50 [8] | GI50 [9] | GI50 [10] | GI50 [11] | GI50 [12] | GI50 [13] | GI50 [14] | GI50 [15] | GI50 [16]
1 | COc1ccccc1/C=C(\NC(=O)c1ccccc1)c1nc2ccccc2[nH]1 | 32.9 µM (inactive) | 34.7 µM (inactive) | 45 µM (inactive) | 51.1 µM (inactive) | > 100 µM | 33.2 µM (inactive) | 28.9 µM (inactive) | 17.6 µM (inactive) | 34 µM (inactive) | 39 µM (inactive) | 46.8 µM (inactive) | 38 µM (inactive) | 53.7 µM (inactive) | 87.3 µM (inactive) | – | –
2 | Oc1cc2c(cc1O)-c1[nH]ncc1CC2 | 32.7 µM (inactive) | 10.2 µM (inactive) | 27.8 µM (inactive) | 22.5 µM (inactive) | 54.1 µM | 35.4 µM (inactive) | 14.4 µM (inactive) | – | 46.8 µM (inactive) | 75 µM (inactive) | 42.4 µM (inactive) | 37.9 µM (inactive) | 22.4 µM (inactive) | 33.6 µM (inactive) | 49.1 µM (inactive) | 27.8 µM (inactive)
3 | O=C(Nc1nc2ncn(CCI)c2c(=O)[nH]1)c1ccccc1 | > 100 µM (inactive) | > 80.4 µM (inactive) | 53.8 µM (inactive) | 33.7 µM (inactive) | 98.6 µM | > 100 µM (inactive) | 27.9 µM (inactive) | > 100 µM (inactive) | 41.9 µM (inactive) | 31.3 µM (inactive) | 76 µM (inactive) | 31.2 µM (inactive) | 26.1 µM (inactive) | > 100 µM (inactive) | 34 µM (inactive) | > 100 µM (inactive)
4 | OC1(C(Sc2ccccc2)Sc2ccccc2)CCCCCC1 | > 10 µM (inactive) | 21.2 µM (inactive) | 11.5 µM (inactive) | 22.5 µM (inactive) | 24.4 µM | 35.8 µM (inactive) | 28.6 µM (inactive) | 21.5 µM (inactive) | 14.1 µM (inactive) | 58.2 µM (inactive) | 28 µM (inactive) | 38.8 µM (inactive) | 21.9 µM (inactive) | 12.2 µM (inactive) | 26.8 µM (inactive) | 20.8 µM (inactive)
5 | CCc1cccc(C(C)C)c1NC(=O)CCl | > 100 µM (inactive) | > 100 µM (inactive) | 45.1 µM (inactive) | > 100 µM (inactive) | > 100 µM | > 100 µM (inactive) | > 100 µM (inactive) | > 100 µM (inactive) | 28.1 µM (inactive) | > 100 µM (inactive) | > 100 µM (inactive) | – | > 100 µM (inactive) | > 100 µM (inactive) | > 100 µM (inactive) | 71.4 µM (inactive)
6 | CC(CCC[C@H](C)CO)[C@H]1[C@@H](O)C(O)C2[C@@H]3C[C@@H](O)C4(O)C[C@@H](O)CC[C@]4(C)C3CC[C@@]21C (some centres not stated) | 31.8 µM (inactive) | > 100 µM (inactive) | > 100 µM (inactive) | > 100 µM (inactive) | > 100 µM | > 100 µM (inactive) | 87.3 µM (inactive) | > 100 µM (inactive) | > 100 µM (inactive) | > 100 µM (inactive) | > 100 µM (inactive) | > 100 µM (inactive) | > 100 µM (inactive) | > 100 µM (inactive) | > 100 µM (inactive) | 36 µM (inactive)
7 | CC(=O)OC1CCC2C(=CCC3C2(C)C(=O)CC2(C)C(C4(C)OC(C(C)C)=CC4=O)C(O)CC32C)C1(C)C (configuration not stated) | 35.5 µM (inactive) | 57.3 µM (inactive) | 19.1 µM (inactive) | 35.7 µM (inactive) | 30.2 µM | 63.2 µM (inactive) | 41.3 µM (inactive) | 22 µM (inactive) | > 100 µM (inactive) | – | 31.6 µM (inactive) | 43.7 µM (inactive) | 18.1 µM (inactive) | 45 µM (inactive) | – | 28.4 µM (inactive)
8 | c1ccc(C(c2ccccc2)c2ccncc2)cc1 | > 100 µM (inactive) | > 100 µM (inactive) | > 100 µM (inactive) | > 100 µM (inactive) | > 100 µM | > 100 µM (inactive) | – | > 100 µM (inactive) | > 100 µM (inactive) | > 100 µM (inactive) | > 100 µM (inactive) | > 100 µM (inactive) | > 100 µM (inactive) | > 100 µM (inactive) | > 100 µM (inactive) | –
9 | CC(C)(C)c1ccc(OCCOCCOc2ccc(C(C)(C)C)cc2S(=O)(=O)Nc2ccc([N+](=O)[O-])cc2)c(S(=O)(=O)Nc2ccc([N+](=O)[O-])cc2)c1 | 6.21 µM (inactive) | 62.5 µM (inactive) | 6.21 µM (inactive) | > 100 µM (inactive) | 7.69 µM | 12.7 µM (inactive) | 4.07 µM (inactive) | – | 76.4 µM (inactive) | 5.64 µM (inactive) | 4.42 µM (inactive) | 9.95 µM (inactive) | > 100 µM (inactive) | 9.31 µM (inactive) | 8.47 µM (inactive) | –
10 | CCCCc1c2c(nc3c1CCc1cc(C=O)c(N)nc1-3)/C(=C/c1ccccc1)CCC2 | > 100 µM (inactive) | 48.4 µM (inactive) | > 100 µM (inactive) | > 100 µM (inactive) | 86.3 µM | > 100 µM (inactive) | > 100 µM (inactive) | > 100 µM (inactive) | > 100 µM (inactive) | > 100 µM (inactive) | 19.6 µM (inactive) | 46.2 µM (inactive) | > 100 µM (inactive) | > 100 µM (inactive) | > 100 µM (inactive) | 58.5 µM (inactive)
11 | CC(=O)OC12C(C)=C(C)C(=O)N1c1ccccc1N2C(C)=O (configuration not stated) | > 100 µM (inactive) | > 100 µM (inactive) | > 100 µM (inactive) | > 100 µM (inactive) | > 100 µM | > 100 µM (inactive) | > 100 µM (inactive) | > 100 µM (inactive) | > 100 µM (inactive) | > 100 µM (inactive) | > 100 µM (inactive) | > 100 µM (inactive) | – | > 100 µM (inactive) | > 100 µM (inactive) | > 100 µM (inactive)
12 | N#CC(C(=O)C(=O)Nc1c(Cl)cccc1Cl)c1ccccc1 (configuration not stated) | > 10 µM (inactive) | > 10 µM (inactive) | > 10 µM (inactive) | > 10 µM (inactive) | > 10 µM | > 10 µM (inactive) | > 10 µM (inactive) | > 10 µM (inactive) | > 10 µM (inactive) | > 10 µM (inactive) | > 10 µM (inactive) | > 100 µM (inactive) | > 10 µM (inactive) | > 10 µM (inactive) | 0.302 µM (active) | > 10 µM (inactive)
13 | CC(=O)OCSc1ncnc2c1ncn2CN1CCOCC1 | 0.841 µM (active) | > 100 µM (inactive) | 4.81 µM (inactive) | 2.01 µM (inactive) | 21.1 µM | 11.9 µM (inactive) | 1.08 µM (active) | 4.44 µM (inactive) | > 100 µM (inactive) | 7.05 µM (inactive) | 44.6 µM (inactive) | 28.9 µM (inactive) | 6.82 µM (inactive) | 6.37 µM (inactive) | 49.9 µM (inactive) | 6.14 µM (inactive)
14 | CC1OC(CC2C=CCc3c(O)c4c(c(O)c32)C(=O)c2ccccc2C4=O)CC(NC(=O)C(F)(F)F)C1O (configuration not stated) | 4.85 µM (inactive) | 12.6 µM (inactive) | 4.71 µM (inactive) | 10.2 µM (inactive) | 11.9 µM | 7.59 µM (inactive) | 2.92 µM (inactive) | 4.28 µM (inactive) | 4.86 µM (inactive) | 2.29 µM (inactive) | – | 4.22 µM (inactive) | 3.95 µM (inactive) | 7.55 µM (inactive) | 5.74 µM (inactive) | 3.7 µM (inactive)
15 | Cc1ccc(-n2cc(/C(N)=N/O)c3ccccc3c2=O)cc1 | > 100 µM (inactive) | > 100 µM (inactive) | > 100 µM (inactive) | > 100 µM (inactive) | > 100 µM | > 100 µM (inactive) | – | > 100 µM (inactive) | > 100 µM (inactive) | > 100 µM (inactive) | > 100 µM (inactive) | > 100 µM (inactive) | > 100 µM (inactive) | – | > 100 µM (inactive) | > 100 µM (inactive)
16 | COc1cc(/C=C/c2ccncc2)cc(OC)c1OC | 52.7 µM (inactive) | 13.1 µM (inactive) | 67.1 µM (inactive) | – | 49.4 µM | > 100 µM (inactive) | 29.9 µM (inactive) | 52.4 µM (inactive) | > 100 µM (inactive) | 41 µM (inactive) | > 100 µM (inactive) | > 100 µM (inactive) | > 100 µM (inactive) | 49 µM (inactive) | > 100 µM (inactive) | –
17 | O=C(Nc1ccccc1[N+](=O)[O-])C(=O)C(C(=O)c1ccccc1-c1ccccc1)C1OC(=O)c2ccccc21 (configuration not stated) | 17.2 µM (inactive) | 20.2 µM (inactive) | 16 µM (inactive) | 30.8 µM (inactive) | 15.9 µM | 17.9 µM (inactive) | – | 18.5 µM (inactive) | 13.6 µM (inactive) | 24 µM (inactive) | 24.5 µM (inactive) | 14.8 µM (inactive) | 11.6 µM (inactive) | 35.6 µM (inactive) | 16.6 µM (inactive) | 8.43 µM (inactive)
18 | CCOC(=O)NC/C=C/CO | > 100 µM (inactive) | – | > 100 µM (inactive) | > 100 µM (inactive) | > 100 µM | – | – | > 100 µM (inactive) | > 100 µM (inactive) | > 100 µM (inactive) | > 100 µM (inactive) | > 100 µM (inactive) | > 100 µM (inactive) | > 100 µM (inactive) | – | > 100 µM (inactive)
19 | Cc1cc(C)nc(NS(=O)(=O)c2ccc(Nc3c4ccccc4nc4c(C(=O)Nc5ccc(S(N)(=O)=O)cc5)cccc34)cc2)n1 | 72.4 µM (inactive) | 35.1 µM (inactive) | 66.1 µM (inactive) | 11.8 µM (inactive) | 47.1 µM | 68.5 µM (inactive) | 30.9 µM (inactive) | > 100 µM (inactive) | 47 µM (inactive) | > 10 µM (inactive) | > 100 µM (inactive) | > 100 µM (inactive) | > 100 µM (inactive) | > 100 µM (inactive) | > 100 µM (inactive) | –
